# Source: ChEMBL document CHEMBL5465560, “Selectivity Literature for EUbOPEN Chemogenomic Library” (2024)
# Legend:
# [1] = target: Thromboxane-A synthase (Homo sapiens) (UniProt P24557); experiment: Selectivity interaction (Eurofins safety panel) EUB0001564a CYP5A1; details: at 10 µM
# [2] = target: Maternal embryonic leucine zipper kinase (Homo sapiens) (UniProt Q14680); experiment: Selectivity interaction (KinomeScan (DiscoverX)) EUB0000655a MELK; details: at 10 µM
# [3] = target: T1, Tyrosine-protein kinase ZAP-70 (Homo sapiens) (UniProt P43403); experiment: Selectivity interaction (ActivX KiNativ screen (ex vivo kinase selectivity in human PBMCs)) EUB0001619a ZAP70; type: cell-based; details: PBMC, at 1 µM
# T1 sequence (whole entry): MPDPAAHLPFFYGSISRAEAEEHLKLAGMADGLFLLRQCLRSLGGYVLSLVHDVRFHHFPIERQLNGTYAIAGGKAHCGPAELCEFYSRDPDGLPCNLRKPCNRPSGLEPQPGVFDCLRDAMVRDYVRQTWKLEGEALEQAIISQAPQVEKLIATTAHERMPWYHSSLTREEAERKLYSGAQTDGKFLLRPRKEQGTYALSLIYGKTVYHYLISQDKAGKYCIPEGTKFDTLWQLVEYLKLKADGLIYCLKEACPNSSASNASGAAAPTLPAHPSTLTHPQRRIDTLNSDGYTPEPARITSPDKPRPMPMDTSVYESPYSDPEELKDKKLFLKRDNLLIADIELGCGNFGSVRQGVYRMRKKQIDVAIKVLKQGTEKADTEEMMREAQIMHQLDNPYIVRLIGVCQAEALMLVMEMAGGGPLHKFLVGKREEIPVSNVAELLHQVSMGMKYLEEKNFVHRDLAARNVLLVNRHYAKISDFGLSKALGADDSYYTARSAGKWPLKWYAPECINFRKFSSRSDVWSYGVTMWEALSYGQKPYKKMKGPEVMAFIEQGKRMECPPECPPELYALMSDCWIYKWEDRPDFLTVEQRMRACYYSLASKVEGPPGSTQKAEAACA
# [4] = system: Mast/stem cell growth factor receptor Kit (Homo sapiens), P10721 [D816V]; experiment: (§1) Selectivity interaction (KinomeScan (DiscoverX)) EUB0000045b KIT
# Chain of Mast/stem cell growth factor receptor Kit (Homo sapiens), P10721 [D816V] (P10721 whole entry D816V): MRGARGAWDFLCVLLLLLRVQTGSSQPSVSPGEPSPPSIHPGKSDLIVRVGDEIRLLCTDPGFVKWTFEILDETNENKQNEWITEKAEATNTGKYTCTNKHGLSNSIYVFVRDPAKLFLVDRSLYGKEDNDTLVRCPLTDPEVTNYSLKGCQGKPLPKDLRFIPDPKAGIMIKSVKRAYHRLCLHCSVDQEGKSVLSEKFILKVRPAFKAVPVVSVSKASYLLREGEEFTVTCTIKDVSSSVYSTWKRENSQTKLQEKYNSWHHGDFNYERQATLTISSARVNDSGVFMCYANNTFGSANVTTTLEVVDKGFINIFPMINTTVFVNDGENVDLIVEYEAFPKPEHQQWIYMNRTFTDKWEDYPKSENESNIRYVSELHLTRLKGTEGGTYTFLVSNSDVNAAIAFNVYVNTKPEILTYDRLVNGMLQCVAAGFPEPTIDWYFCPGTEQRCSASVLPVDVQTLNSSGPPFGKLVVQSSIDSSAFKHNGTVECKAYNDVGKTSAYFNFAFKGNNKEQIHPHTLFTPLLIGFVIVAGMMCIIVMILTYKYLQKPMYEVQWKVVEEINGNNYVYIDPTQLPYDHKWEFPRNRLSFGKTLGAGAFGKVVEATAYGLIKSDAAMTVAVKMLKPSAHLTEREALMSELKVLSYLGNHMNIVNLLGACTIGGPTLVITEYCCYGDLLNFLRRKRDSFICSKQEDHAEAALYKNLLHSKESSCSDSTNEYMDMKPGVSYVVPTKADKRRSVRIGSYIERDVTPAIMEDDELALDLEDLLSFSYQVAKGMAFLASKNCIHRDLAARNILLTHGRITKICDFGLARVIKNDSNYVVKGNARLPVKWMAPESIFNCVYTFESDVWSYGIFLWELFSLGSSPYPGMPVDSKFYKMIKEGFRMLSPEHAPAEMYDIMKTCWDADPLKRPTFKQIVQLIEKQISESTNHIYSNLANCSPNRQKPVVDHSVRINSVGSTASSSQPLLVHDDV
# [5] = system: Mast/stem cell growth factor receptor Kit (Homo sapiens), P10721 [D816H]; experiment: as §1
# Chain of Mast/stem cell growth factor receptor Kit (Homo sapiens), P10721 [D816H] (P10721 whole entry D816H): as the sequence (P10721 whole entry D816V) above, with V816H counted along it
# [6] = system: Mast/stem cell growth factor receptor Kit (Homo sapiens), P10721 [V559D]; experiment: as §1
# Chain of Mast/stem cell growth factor receptor Kit (Homo sapiens), P10721 [V559D] (P10721 whole entry V559D): as the sequence (P10721 whole entry D816V) above, with V559D, V816D counted along it
# [7] = system: Mast/stem cell growth factor receptor Kit (Homo sapiens), P10721 [V559D,V654A]; experiment: as §1
# Chain of Mast/stem cell growth factor receptor Kit (Homo sapiens), P10721 [V559D,V654A] (P10721 whole entry V559D/V654A): as the sequence (P10721 whole entry D816V) above, with V559D, V654A, V816D counted along it
# [8] = system: Mast/stem cell growth factor receptor Kit (Homo sapiens), P10721 [A829P]; experiment: as §1
# Chain of Mast/stem cell growth factor receptor Kit (Homo sapiens), P10721 [A829P] (P10721 whole entry A829P): as the sequence (P10721 whole entry D816V) above, with V816D, A829P counted along it
# [9] = target: Mast/stem cell growth factor receptor Kit (Homo sapiens, UniProt P10721); experiment: as §1
# Chain of Mast/stem cell growth factor receptor Kit (P10721 whole entry): as the sequence (P10721 whole entry D816V) above, with V816D counted along it
# [10] = system: Mast/stem cell growth factor receptor Kit (Homo sapiens), P10721 [V559D,T670I]; experiment: as §1
# Chain of Mast/stem cell growth factor receptor Kit (Homo sapiens), P10721 [V559D,T670I] (P10721 whole entry V559D/T670I): as the sequence (P10721 whole entry D816V) above, with V559D, T670I, V816D counted along it
# [11] = system: Mast/stem cell growth factor receptor Kit (Homo sapiens), P10721 [L576P]; experiment: as §1
# Chain of Mast/stem cell growth factor receptor Kit (Homo sapiens), P10721 [L576P] (P10721 whole entry L576P, canonical isoform): as the sequence (P10721 whole entry D816V) above, with L576P, V816D counted along it
# [12] = target: Casein kinase I isoform delta (Homo sapiens, UniProt P48730); experiment: Selectivity interaction (KinomeScan (DiscoverX)) EUB0000595a CSNK1D; details: at 10 µM
# Chain of Casein kinase I isoform delta (P48730 whole entry, looked up, canonical isoform): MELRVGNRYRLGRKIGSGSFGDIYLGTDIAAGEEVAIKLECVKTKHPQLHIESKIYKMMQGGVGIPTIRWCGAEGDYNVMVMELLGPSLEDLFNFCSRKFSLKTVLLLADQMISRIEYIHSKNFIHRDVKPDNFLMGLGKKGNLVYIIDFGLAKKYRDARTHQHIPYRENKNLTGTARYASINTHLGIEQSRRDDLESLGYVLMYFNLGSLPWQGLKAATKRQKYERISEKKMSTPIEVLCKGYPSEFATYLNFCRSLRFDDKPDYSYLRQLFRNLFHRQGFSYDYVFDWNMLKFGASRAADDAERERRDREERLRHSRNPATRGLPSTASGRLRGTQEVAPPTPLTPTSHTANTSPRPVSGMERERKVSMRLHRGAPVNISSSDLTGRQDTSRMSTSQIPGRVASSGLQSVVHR
# [13] = target: Glycogen synthase kinase-3 alpha (Homo sapiens, UniProt P49840); experiment: Selectivity interaction (ProQinase) EUB0000171b GSK3A
# Chain of Glycogen synthase kinase-3 alpha (P49840 2-483 limits assumed): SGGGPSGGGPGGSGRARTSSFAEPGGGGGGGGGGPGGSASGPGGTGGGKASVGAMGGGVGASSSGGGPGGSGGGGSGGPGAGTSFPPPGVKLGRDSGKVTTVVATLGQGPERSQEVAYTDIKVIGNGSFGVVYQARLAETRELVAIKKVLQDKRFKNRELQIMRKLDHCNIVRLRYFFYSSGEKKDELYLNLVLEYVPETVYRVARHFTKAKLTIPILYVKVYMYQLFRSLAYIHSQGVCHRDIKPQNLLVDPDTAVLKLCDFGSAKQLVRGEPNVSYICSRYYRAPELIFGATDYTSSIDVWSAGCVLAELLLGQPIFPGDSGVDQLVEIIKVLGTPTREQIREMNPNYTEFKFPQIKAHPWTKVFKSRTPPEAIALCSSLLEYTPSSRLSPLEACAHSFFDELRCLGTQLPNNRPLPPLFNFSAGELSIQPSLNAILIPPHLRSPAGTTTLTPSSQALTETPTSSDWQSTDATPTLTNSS
# [14] = target: T2, Ephrin type-A receptor 1 (Homo sapiens) (UniProt P21709); experiment: Selectivity interaction (ProQinase) EUB0000171b EPHA1
# T2 sequence (whole entry): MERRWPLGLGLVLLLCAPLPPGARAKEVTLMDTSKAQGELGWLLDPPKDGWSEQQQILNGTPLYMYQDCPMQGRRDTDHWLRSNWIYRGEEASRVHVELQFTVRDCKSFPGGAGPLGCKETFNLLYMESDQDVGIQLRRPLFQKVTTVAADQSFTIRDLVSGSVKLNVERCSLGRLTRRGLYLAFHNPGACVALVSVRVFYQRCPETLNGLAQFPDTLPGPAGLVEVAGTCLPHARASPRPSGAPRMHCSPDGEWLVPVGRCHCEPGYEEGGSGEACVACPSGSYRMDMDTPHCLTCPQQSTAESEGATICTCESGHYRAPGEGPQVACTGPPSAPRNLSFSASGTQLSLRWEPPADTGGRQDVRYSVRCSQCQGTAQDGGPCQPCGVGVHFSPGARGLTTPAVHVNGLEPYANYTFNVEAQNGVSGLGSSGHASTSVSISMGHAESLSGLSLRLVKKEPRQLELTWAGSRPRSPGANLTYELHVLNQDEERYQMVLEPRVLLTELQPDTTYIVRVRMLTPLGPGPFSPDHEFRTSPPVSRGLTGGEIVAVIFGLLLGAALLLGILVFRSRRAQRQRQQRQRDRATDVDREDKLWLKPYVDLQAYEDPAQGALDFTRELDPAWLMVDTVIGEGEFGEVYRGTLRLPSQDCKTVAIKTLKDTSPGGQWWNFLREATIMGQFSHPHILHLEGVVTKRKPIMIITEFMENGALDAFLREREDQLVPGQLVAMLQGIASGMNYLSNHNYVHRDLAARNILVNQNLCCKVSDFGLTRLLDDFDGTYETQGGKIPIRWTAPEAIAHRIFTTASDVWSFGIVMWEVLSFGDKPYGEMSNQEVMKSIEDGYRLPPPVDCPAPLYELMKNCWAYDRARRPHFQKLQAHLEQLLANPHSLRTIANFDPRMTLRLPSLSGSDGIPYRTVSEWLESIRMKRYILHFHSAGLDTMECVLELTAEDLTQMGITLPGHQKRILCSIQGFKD
# Chain of Thromboxane-A synthase (Homo sapiens) (P24557 whole entry): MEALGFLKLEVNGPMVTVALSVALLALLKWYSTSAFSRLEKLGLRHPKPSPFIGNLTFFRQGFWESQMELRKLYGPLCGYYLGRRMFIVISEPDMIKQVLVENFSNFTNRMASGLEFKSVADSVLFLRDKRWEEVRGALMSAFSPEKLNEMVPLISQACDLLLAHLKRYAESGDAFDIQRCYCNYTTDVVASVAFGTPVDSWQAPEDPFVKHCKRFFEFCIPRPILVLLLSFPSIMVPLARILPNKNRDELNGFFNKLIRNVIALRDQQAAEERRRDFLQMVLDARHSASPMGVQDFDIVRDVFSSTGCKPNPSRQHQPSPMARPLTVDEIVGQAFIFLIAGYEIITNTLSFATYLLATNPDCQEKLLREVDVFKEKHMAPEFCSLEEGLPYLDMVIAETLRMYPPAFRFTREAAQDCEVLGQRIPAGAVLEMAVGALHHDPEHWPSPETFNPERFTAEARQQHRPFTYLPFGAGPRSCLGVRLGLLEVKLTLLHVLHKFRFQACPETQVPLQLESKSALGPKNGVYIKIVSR
# Chain of Maternal embryonic leucine zipper kinase (Homo sapiens) (Q14680 whole entry, looked up): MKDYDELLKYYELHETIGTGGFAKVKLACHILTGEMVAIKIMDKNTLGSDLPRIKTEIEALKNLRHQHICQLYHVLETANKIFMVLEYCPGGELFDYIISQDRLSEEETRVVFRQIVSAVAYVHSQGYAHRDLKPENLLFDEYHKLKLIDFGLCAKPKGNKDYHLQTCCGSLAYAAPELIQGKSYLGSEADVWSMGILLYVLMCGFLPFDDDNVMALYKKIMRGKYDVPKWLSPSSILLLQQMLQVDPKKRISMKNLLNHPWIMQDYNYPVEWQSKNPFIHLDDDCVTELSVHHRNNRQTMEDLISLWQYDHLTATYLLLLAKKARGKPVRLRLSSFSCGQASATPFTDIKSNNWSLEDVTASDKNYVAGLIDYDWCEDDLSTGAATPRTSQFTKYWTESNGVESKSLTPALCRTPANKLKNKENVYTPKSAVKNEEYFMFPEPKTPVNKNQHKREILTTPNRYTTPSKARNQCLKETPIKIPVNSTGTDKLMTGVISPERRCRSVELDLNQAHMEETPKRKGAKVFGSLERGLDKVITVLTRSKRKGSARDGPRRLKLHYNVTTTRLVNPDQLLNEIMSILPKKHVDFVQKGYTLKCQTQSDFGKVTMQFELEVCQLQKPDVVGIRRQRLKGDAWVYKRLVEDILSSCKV
compound,measurement,setting,value
CC[C@@H](Nc1c(C#N)c(-c2ccc(-c3cccc(C)c3F)cc2)nc2cnccc12)C(=O)O [BAY-091],% of inhibition,[1],98%
CN(C)CCOc1ccc(-c2nc(-c3ccncc3)c(-c3ccc4c(c3)CC/C4=N\O)[nH]2)cc1,% of control,[2],100%
N#Cc1cccc(-c2c[nH]c3ncnc(N4CCOCC4)c23)c1,% of inhibition,[3],-3%
C=CC(=O)Nc1cc(-n2c(=O)ccc3cnc4ccc(-c5ccc(NS(C)(=O)=O)cc5)cc4c32)ccc1C,% of control,[4]; at 1 µM,69%
same,% of control,[4]; at 10 µM,73%
same,% of control,[5]; at 1 µM,99%
same,% of control,[5]; at 10 µM,100%
same,% of control,[6]; at 1 µM,87%
same,% of control,[6]; at 10 µM,88%
same,% of control,[7]; at 1 µM,100%
same,% of control,[7]; at 10 µM,100%
same,% of control,[8]; at 1 µM,74%
same,% of control,[8]; at 10 µM,81%
same,% of control,[9]; at 1 µM,89%
same,% of control,[9]; at 10 µM,89%
same,% of control,[10]; at 1 µM,100%
same,% of control,[10]; at 10 µM,91%
same,% of control,[11]; at 1 µM,100%
same,% of control,[11]; at 10 µM,83%
COCC(=O)NC/C=C/c1ccc2ncnc(Nc3ccc(Oc4ccc(C)nc4)c(C)c3)c2c1 [CP-724714],% of control,[12],90%
C=CC(=O)Nc1cccc(C(=O)Nc2ccc(Nc3cc(-c4[nH]c(SC)nc4C)ccn3)cc2)c1,% of control,[13]; at 1 µM,90%
same,% of control,[13]; at 5 µM,61%
same,% of control,[14]; at 1 µM,90%
same,% of control,[14]; at 5 µM,63%
